Measured values as given in PubChem BioAssay AID1963965 (Molecular Pharmacology Branch, DTP, NCI, 2024).

System: 996289-038-R-J1-PDC spheroid viability
Experiment: Anticancer human tumor 996289-038-R-J1-PDC patient-derived colon adenocarcinoma cell line growth inhibition [PI3K]
Settings: spheroids with HUVEC and MSC; for IC50: curve of first compound; for viability, T/C: stronger effect = lower value
Procedure, shortened: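 Tumor cells grown as multi-cell spheroids with HUVEC endothelial cells and MSC fibroblast-like stroma were treated with targeted agents combined with inavolisib, alpelisib, duvelisib or copanlisib. Doses fell in half-log steps from near clinical Cmax, else from 10 microM. Viability was measured.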
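Note: spheroids exposed to compounds for seven days before viability read.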
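Throughout, for viability, T/C: luminescence used as a proxy for viable cell amount; percent viability relative to DMSO vehicle control as 100%.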

IC50 (second compound 0.00316 µM): > 100 nM
IC50 (second compound 0.01 µM): > 100 nM
IC50 (second compound 0.0316 µM): > 100 nM
IC50 (second compound 0.1 µM): > 100 nM
IC50 (second compound 0.316 µM): < 0.316 nM
IC50 (second compound 1 µM): < 0.316 nM
Compound: CC(=O)c1c(C)c2cnc(Nc3ccc(N4CCNCC4)cn3)nc2n(C2CCCC2)c1=O + COc1c(OCCCN2CCOCC2)ccc2c3n(c(=NC(=O)c4cnc(N)nc4)nc12)CCN3
viability, T/C (second compound 0.00316 µM, first compound 0.000316 µM): 99.3%
viability, T/C (second compound 0.00316 µM, first compound 0.001 µM): 96.9%
viability, T/C (second compound 0.00316 µM, first compound 0.00316 µM): 104%
viability, T/C (second compound 0.00316 µM, first compound 0.01 µM): 94.2%
viability, T/C (second compound 0.00316 µM, first compound 0.0316 µM): 97.4%
viability, T/C (second compound 0.00316 µM, first compound 0.1 µM): 83.1%
viability, T/C (second compound 0.01 µM, first compound 0.000316 µM): 89.1%
viability, T/C (second compound 0.01 µM, first compound 0.001 µM): 89.9%
viability, T/C (second compound 0.01 µM, first compound 0.00316 µM): 80.2%
viability, T/C (second compound 0.01 µM, first compound 0.01 µM): 90.8%
viability, T/C (second compound 0.01 µM, first compound 0.0316 µM): 94.2%
viability, T/C (second compound 0.01 µM, first compound 0.1 µM): 73%
viability, T/C (second compound 0.0316 µM, first compound 0.000316 µM): 66.1%
viability, T/C (second compound 0.0316 µM, first compound 0.001 µM): 81.4%
viability, T/C (second compound 0.0316 µM, first compound 0.00316 µM): 80.5%
viability, T/C (second compound 0.0316 µM, first compound 0.01 µM): 81.8%
viability, T/C (second compound 0.0316 µM, first compound 0.0316 µM): 73.7%
viability, T/C (second compound 0.0316 µM, first compound 0.1 µM): 70.6%
viability, T/C (second compound 0.1 µM, first compound 0.000316 µM): 62.7%
viability, T/C (second compound 0.1 µM, first compound 0.001 µM): 56%
viability, T/C (second compound 0.1 µM, first compound 0.00316 µM): 59.4%
viability, T/C (second compound 0.1 µM, first compound 0.01 µM): 55%
viability, T/C (second compound 0.1 µM, first compound 0.0316 µM): 57.5%
viability, T/C (second compound 0.1 µM, first compound 0.1 µM): 49.8%
viability, T/C (second compound 0.316 µM, first compound 0.000316 µM): 34.4%
viability, T/C (second compound 0.316 µM, first compound 0.001 µM): 31.6%
viability, T/C (second compound 0.316 µM, first compound 0.00316 µM): 39.1%
viability, T/C (second compound 0.316 µM, first compound 0.01 µM): 31.3%
viability, T/C (second compound 0.316 µM, first compound 0.0316 µM): 37.8%
viability, T/C (second compound 0.316 µM, first compound 0.1 µM): 29.4%
viability, T/C (second compound 1 µM, first compound 0.000316 µM): 19.1%
viability, T/C (second compound 1 µM, first compound 0.001 µM): 22%
viability, T/C (second compound 1 µM, first compound 0.00316 µM): 21.5%
viability, T/C (second compound 1 µM, first compound 0.01 µM): 16.6%
viability, T/C (second compound 1 µM, first compound 0.0316 µM): 17.7%
viability, T/C (second compound 1 µM, first compound 0.1 µM): 15.9%
